Reference: patent US7435252B2, “Control of microorganisms in the sino-nasal tract” (priority 2003, dated 2008)
Entries after “also recorded” stand apart in the source; their conditions may differ.

Tests used:
E. Coli = conditions: gram negative (E. Coli); cited from earlier work
Staph aureus = conditions: gram positive (Staph aureus); cited from earlier work
[1] = tested on: Porphyromonas Gingivalis and Prevotella Intermedia; test: Lethal photosensitization of oral pathogens in vitro, colony count after methylene blue stain and red-filtered halogen light; type: cell-based
Protocol: Suitable stain dosages for providing lethal sensitization of oral pathogens are determined in vitro by the following procedure. An objective is to determine the minimum duration of light exposure and minimum agent dilution required to achieve at least a 50% reduction in bacteria counts. Experimental tests are performed on two common pathogens using a continuously working, high intensity, red filtered halogen lamp. Red light from the filtered halogen lamp is transmitted through a flexible light guide to radiate downwardly onto petri dishes containing samples of live bacteria of species Porphyromonas Gingivalis and Prevotella Intermedia using the protocols described below.
(§1) Bacteria. Prevotella Intermedia is isolated from patient sample material, identified in the laboratory using standard diagnostic test systems (Remel Inc., Lenexa, Kans., USA) and is maintained by twice-weekly subculture in thioglycollate medium (Becton Dickinson and Co, Sparks, Md., USA). P. gingivalis ATCC 33277 obtained from Remel Inc., is maintained by a twice-weekly subculture on CDC anaerobe blood agar (Becton Dickinson and Co, USA) and in thioglycollate medium (Becton Dickinson and Co, USA).
(§2) Light Source. The source for light energy is a continuously working, high intensity halogen lamp having a built-in 250-Watt quartz halogen light source, model 1-250 supplied by Medithon, New York, N.Y., USA. Such lights are customarily employed for ear, nose or throat procedures. The light is transmitted through a flexible light guide and filtered to maintain maximum energy output at wavelengths in the vicinity of about 650 nm using a broadband red filter (Edmund Optics Inc., Barrington, N.J., USA). The light output power density measured at 3 cm distance from the end of the light guide with filter is about 50 milliwatts/cm2.
Photosensitizer. […] Serial dilutions with water of initial solution with respective concentrations of 0.1%, 0.075%, 0.05%, 0.025% and 0.01% are prepared from the initial solution using sterile 10-ml bottles of normal saline and sterile syringes.
Lethal photosensitization of P. Intermedia. Petri dishes containing CDC anaerobe blood agar (Becton Dickinson and Co, USA) are inoculated with 0.5 ml of broth containing 5×10^5 CFU/ml and left closed at room temperature for about 10 minutes to let the broth penetrate the agar media. […] Only plates with concentrations of 0.01%, and 0.025% are used in the experiment with 20 min light exposure. Four plates are used for each experiment. […] The controls are covered to protect them from ambient light. […] A total of 108 subcultures is used for the experiment. Plates are incubated in anaerobic conditions in the jars using anaerobic pack kits (BBL GasPak Plus, Becton Dickinson and Co, Sparks, Md., USA) at 37° C. for 24 hours. Samples of the resulting culture growth are taken from each plate with sterile […] standard loop, dispensed in 1 ml of sterile NS and placed at the same media. Cultures are incubated at anaerobic conditions at 37° C. for another 24 hours, and after that the resulting colony count is performed on each plate.
Lethal photosensitization of P. Gingivalis. Serial dilutions of the P. gingivalis culture are prepared from the initial culture preserved on plates using 1:L sterile standard loop (Becton Dickinson and Co, USA) and sterile NS. AVitek calorimeter (Hach Company, Loveland, Colo., USA) is used to achieve a final concentration of about 5×10^3 CFU/ml from an initial 0.5 standard McFarland suspension of 10^8 CFU/ml. Plates containing CDC anaerobic blood agar (Becton Dickinson and Co, USA) are inoculated with the resulting suspension using sterile 10:L standard loops (Becton Dickinson and Co, USA). […] Plates are also incubated at 37° C. in the tightly closed jars supplied with anaerobic pack kits (BBL GasPak Plus, Becton Dickinson and Co, USA) for 24 hours, and the resulting colony count is performed on each plate.
Statistical analyses can be carried out using single-factor analysis of variance.

P. gingivalis ATCC 33277 = test: Lethal photosensitization of P. Gingivalis, colony count; type: cell-based, Porphyromonas Gingivalis
From the text: as §1, §2
Photosensitizer. […] Serial dilutions with water of initial solution with respective concentrations of 0.1%, 0.075%, 0.05%, 0.025% and 0.01% are prepared from the initial solution using sterile 10-ml bottles of normal saline and sterile syringes. […]

[2] = tested on: Porphyromonas Gingivalis and Prevotella Intermedia; test: Lethal photosensitization of oral pathogens in vitro, colony count after methylene blue stain and red-filtered halogen light; type: cell-based; conditions: methylene blue 0.001% or 0.025%, without halogen light
Candida albicans = conditions: MB 450 and 500 microgram/mL, diode laser light 664 nm, 275 J/cm fiber length, 400 mW, 687.5 seconds, immunosuppressed murine model; cited from earlier work

| SMILES | phototoxicity (E. Coli) | phototoxicity (Staph aureus) | Reduction of bacteria ([1]; 0.05% methylene blue alone, without exposure to light) | difference between exposure for 10 and 20 minutes ([1]; either species, any concentration of methylene blue) | reduction in bacteria counts ([1]; light exposure 1 min, methylene blue 0.05% and higher) | reduction in bacteria counts ([1]; light exposure 5 min, methylene blue 0.025%) | bactericidal effect ([1]; methylene blue 0.01% or higher with red-filtered high-intensity light, exposure less than 10 minutes, accumulated energy 30 J/cm^2) | killing with duration of light exposure ([1]; methylene blue 0.025%, time intervals 5 and 10 min, both cultures) | killing with duration of light exposure ([1]; methylene blue 0.05%, time intervals 1 min, 5 min and 10 min, both cultures) | bacterial count reduction ([1]; methylene blue 0.075% and 0.1%, light exposure 1 min, both cultures) | bactericidal effect ([1]; methylene blue 0.075% and 0.1%, without light exposure) | bacterial killing (P. gingivalis ATCC 33277; methylene blue 0.01%, without light exposure, P. gingivalis culture) | bactericidal effect (P. gingivalis ATCC 33277; methylene blue 0.1%, P. gingivalis) | killing bacteria [2] | eradication of Candida albicans (Candida albicans) |
| --- | --- | --- | --- | --- | --- | --- | --- | --- | --- | --- | --- | --- | --- | --- | --- |
| Cc1cc2nc3ccc(N(C)C)cc3[s+]c2cc1N.[Cl-] [toluidine blue 0] | bacterial cell death | bacterial cell death |  |  |  |  |  |  |  |  |  |  |  |  |  |
| CN(C)c1ccc2nc3ccc(=[N+](C)C)cc-3sc2c1 [methylene blue] | bacterial cell death | bacterial cell death | insignificant | No statistically significant difference | Significant reduction in bacteria counts | Significant reduction in bacteria counts | bactericidal effect | statistically significant increased killing with duration | statistically significant increased killing with duration | statistically significant bacterial count reduction | significant bactericidal effect; also recorded: significantly bactericidal | statistically significant bacterial killing | bactericidal effect | nor concentrations of methylene blue of 0.001% or 0.025%, without halogen light, appeared to be effective in killing bacteria | totally eradicate |
